Source: patent US20130116302A1, “PHARMACEUTICAL COMPOSITION FOR THE TREATMENT OF CHLAMYDIAL INFECTION” (Max-Planck-Gesellschaft zur Foerderung der Wissenschaften …, priority 2010, published 2013)

System: Ctr
Assay: not given
Conditions: Su et al., 2004; cited from earlier work

Compound	infectivity of Ctr
N#CC(=C(/N)Sc1ccccc1N)/C(C#N)=C(\N)Sc1ccccc1N [U0126]	decreases

System: C. trachomatis L2
Assay: genome-wide siRNA-based screen in human epithelial cells, formation of Chlamydia infectious progeny
Assay type: cell-based
Conditions: Table 1b, primary screen, genes of nucleotide metabolism
Excerpt: We performed a genome-wide siRNA-based screen in human epithelial cells to identify host cell factors that are essential for Chlamydia infection using the Qiagen Hu_Genome Set V1.0 and the Human Druggable Genome siRNA Set V2.0. C. trachomatis L2 was used.

Compound	Infectivity phenotype upon Knockdown
Hs_IMPDH2_6: siRNA, target gene IMPDH2 (sense TGGGATCCGGCTAAAGAAATA; chemistry not given here; the letters are possibly those of the target site)	down
Hs_PAPSS2_1: siRNA, target gene PAPSS2 (sense ATGGAAGGTCCTGACAGATTA; chemistry not given here; the letters are possibly those of the target site)	down
Hs_GUK1_6: siRNA, target gene GUK1 (sense CCCGGCGAGGAGAACGGCAAA; chemistry not given here)	down
Hs_NME1_8: siRNA, target gene NME1 (sense TCCGAAGATCTTCTCAAGGAA; chemistry not given here; the letters are possibly those of the target site)	down
Hs_PDE6B_4: siRNA, target gene PDE6B (sense GCCCACCACATTTGACATCTA; chemistry not given here; the letters are possibly those of the target site)	down
Hs_PDE1A_2: siRNA, target gene PDE1A (sense ACAGAGTGCTATAACTATAAA; chemistry not given here; the letters are possibly those of the target site)	down
Hs_ADCY8_8: siRNA, target gene ADCY8 (sense CAGGCCGCCTTTGAGTCTTTA; chemistry not given here; the letters are possibly those of the target site)	down
Hs_PDE4D_4: siRNA, target gene PDE4D (sense CAGGTAGTTAAGTTAGGGTTA; chemistry not given here; the letters are possibly those of the target site)	down
Hs_ENPP3_2: siRNA, target gene ENPP3 (sense TAGCAATTTGGTACCTATGTA; chemistry not given here; the letters are possibly those of the target site)	down
Hs_IMPDH1_7: siRNA, target gene IMPDH1 (sense CAGGCGGGCGTCGACGTCATA; chemistry not given here; the letters are possibly those of the target site)	down
Hs_NPR2_2: siRNA, target gene NPR2 (sense ACCCAACTGAATGAAGAGCTA; chemistry not given here; the letters are possibly those of the target site)	down
Hs_AMPD3_1: siRNA, target gene AMPD3 (sense CGGGATCACTTTGGAGGACTA; chemistry not given here; the letters are possibly those of the target site)	down
Hs_ENTPD4_1: siRNA, target gene ENTPD4 (sense CAGCAGGAAGAAGTAGCTAAA; chemistry not given here; the letters are possibly those of the target site)	down
Hs_ENPP6_2: siRNA, target gene ENPP6 (sense CAGGGTGATGTGCATGCTGAA; chemistry not given here; the letters are possibly those of the target site)	down
Hs_GMPS_1: siRNA, target gene GMPS (sense AACAGAGAACTTGAGTGTATT; chemistry not given here; the letters are possibly those of the target site)	down
Hs_ENPP5_1: siRNA, target gene ENPP5 (sense AAGCATTTAATTCACAGTCAA; chemistry not given here; the letters are possibly those of the target site)	down

Compound	Infectivity phenotype upon Knockdown
Hs_PDE2A_4: siRNA, target gene PDE2A (sense ATCGCGGAGCTGATCTACAAA; chemistry not given here; the letters are possibly those of the target site)	down
Hs_PDE4A_2: siRNA, target gene PDE4A (sense TTCGATCTTGTCTCCAATTAA; chemistry not given here; the letters are possibly those of the target site)	down
Hs_PDE2A_3: siRNA, target gene PDE2A (sense ACCGCTTTGTACATGAGAATA; chemistry not given here; the letters are possibly those of the target site)	down
Hs_GMPS_2: siRNA, target gene GMPS (sense AAGAATTTCCTTTATGATATA; chemistry not given here; the letters are possibly those of the target site)	down
Hs_HPRT1_6: siRNA, target gene HPRT1 (sense CCCACGAAGTGTTGGATATAA; chemistry not given here; the letters are possibly those of the target site)	down
Hs_GMPR2_11: siRNA, target gene GMPR2 (sense TCCCAAGGCACCAGTACTCTA; chemistry not given here; the letters are possibly those of the target site)	down
Hs_IMPDH1_6: siRNA, target gene IMPDH1 (sense CAGCAGCAGCCAGAAACGATA; chemistry not given here; the letters are possibly those of the target site)	down
Hs_NME3_3: siRNA, target gene NME3 (sense CTGCATCGAGGTTGGCAAGAA; chemistry not given here; the letters are possibly those of the target site)	down
Hs_ITPA_3: siRNA, target gene ITPA (sense GAGGAGGTCGTTCAGATTCTA; chemistry not given here; the letters are possibly those of the target site)	down
Hs_GMPR2_12: siRNA, target gene GMPR2 (sense TTGGACCTTCACATATCTAAA; chemistry not given here; the letters are possibly those of the target site)	down
Hs_NME2P1_2: siRNA, target gene NME2P1 (sense CAGGTTGGCAGGAACATCATT; chemistry not given here; the letters are possibly those of the target site)	down
Hs_NME2P1_4: siRNA, target gene NME2P1 (sense CCTGGTGGGCAAGATCATCAA; chemistry not given here; the letters are possibly those of the target site)	down
Hs_NME2_3: siRNA, target gene NME2 (sense TAGAGCATATTTGCCAATAAA; chemistry not given here; the letters are possibly those of the target site)	down
Hs_NME2_6: siRNA, target gene NME2 (sense TGGGCTGGTGAAGTACATGAA; chemistry not given here; the letters are possibly those of the target site)	down
Hs_PDE6B_2: siRNA, target gene PDE6B (sense CACGCTGCTCATGACCGGCAA; chemistry not given here; the letters are possibly those of the target site)	down

System: Chlamydia
Assay: effect of chemical inhibitors of GMPS on Chlamydia infection
Assay type: cell-based
Conditions: chemical inhibitor of GMPS added to infected cells
Procedure: The effect of chemical inhibitors of GMPS on Chlamydia infection was tested.

Compound	Chlamydia replication
C=C1O[C@@](CO)(n2cnc3c(N)ncnc32)[C@H](O)[C@@H]1O [Decoyinine]	no inhibitory effect

System: cPLA2
Assay: not given
Conditions: 30 hours post-infection; FIG. 3A
Procedure: (§1) Western blotting analysis (30 hours post-infection) of (A) uninfected and Ctr-infected cells with and without U0126, (B) uninfected and Ctr-infected cells transfected with siRNAs targeting luciferase or MEK1 and 2, and (C) uninfected and Ctr-infected cells transfected with siRNAs targeting luciferase, K-Ras, or Raf-1. β-actin was used as a loading control. (D) Uninfected and Ctr-infected cells treated with or without UO126 were lysed at 48 hours post-infection and these samples were used to infect freshly seeded cells. These cells were fixed 24 hours post-infection and the infectivity was quantified. Data shown are the mean±SD of three experiments normalized to mock-treated, infected cells. (E) Uninfected and Ctr-infected cells, untransfected of transfected with siRNAs specific for luciferase, K-Ras, or Raf-1 were lysed 48 hours post-infection and these samples were then used to infect freshly seeded cells. These cells were fixed 24 hours post-infection and the infectivity of the bacteria was quantified. […] Western blots depicted in (A) to (C) are representative of three experiments.

Compound	phosphorylation of cPLA2 in response to infection
N#CC(=C(/N)Sc1ccccc1N)/C(C#N)=C(\N)Sc1ccccc1N [U0126]	repressed

System: ERK
Assay: not given
Conditions: 30 hours post-infection; FIG. 3A
Procedure: as §1

Compound	phosphorylation of ERK in response to infection
N#CC(=C(/N)Sc1ccccc1N)/C(C#N)=C(\N)Sc1ccccc1N [U0126]	repressed

System: Chlamydia trachomatis (Ctr)
Assay: not given
Conditions: 10 μM or 100 μM U0126 added 2 h after infection; lysed 48 h p.i.; FIG. 3D
Procedure: as §1

Compound	infectivity of Ctr
N#CC(=C(/N)Sc1ccccc1N)/C(C#N)=C(\N)Sc1ccccc1N [U0126]	decreased

System: cPLA2
Assay: not given
Conditions: Su et al., 2004; cited from earlier work

Compound	extent of phosphorylation of cPLA2
N#CC(=C(/N)Sc1ccccc1N)/C(C#N)=C(\N)Sc1ccccc1N [U0126]	reduces
